Assay results published in PubChem BioAssay (NCI).
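Interpolation was linear, between the two tested concentrations surrounding the appropriate level; five concentrations were tested over 48 hours in 96-well plates. The concentration for full growth arrest is given as TGI.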

Tests used:
Experiment in all cases: inhibition of tumour cell growth, NCI panel, 48 h
A498 renal = test system: A498 renal
ACHN renal = test system: ACHN renal
CCRF-CEM leukemia = test system: CCRF-CEM leukemia
DLD-1 colon = test system: DLD-1 colon
EKVX NSCLC = test system: EKVX NSCLC
HCC-2998 colon = test system: HCC-2998 colon
HCT-116 colon = test system: HCT-116 colon
HL-60(TB) leukemia = test system: HL-60(TB) leukemia
HOP-62 NSCLC = test system: HOP-62 NSCLC
HT29 colon = test system: HT29 colon
K-562 leukemia = test system: K-562 leukemia
KM12 colon = test system: KM12 colon
KM20L2 colon = test system: KM20L2 colon
LOX IMVI melanoma = test system: LOX IMVI melanoma
LXFL 529 NSCLC = test system: LXFL 529 NSCLC
M14 melanoma = test system: M14 melanoma
M19-MEL melanoma = test system: M19-MEL melanoma
MALME-3M melanoma = test system: MALME-3M melanoma
MOLT-4 leukemia = test system: MOLT-4 leukemia
NCI-H23 lung = test system: NCI-H23 lung
NCI-H460 lung = test system: NCI-H460 lung
NCI-H522 lung = test system: NCI-H522 lung
OVCAR-3 ovarian = test system: OVCAR-3 ovarian
OVCAR-4 ovarian = test system: OVCAR-4 ovarian
OVCAR-5 ovarian = test system: OVCAR-5 ovarian
RXF 393 renal = test system: RXF 393 renal
SF-268 CNS = test system: SF-268 CNS
SF-539 CNS = test system: SF-539 CNS
SK-MEL-2 melanoma = test system: SK-MEL-2 melanoma
SK-MEL-28 melanoma = test system: SK-MEL-28 melanoma
SK-OV-3 ovarian = test system: SK-OV-3 ovarian
SN12C renal = test system: SN12C renal
SNB-19 CNS = test system: SNB-19 CNS
SNB-75 CNS = test system: SNB-75 CNS
SNB-78 CNS = test system: SNB-78 CNS
SR leukemia = test system: SR leukemia
TK-10 renal = test system: TK-10 renal
U251 CNS = test system: U251 CNS
UACC-257 melanoma = test system: UACC-257 melanoma
UACC-62 melanoma = test system: UACC-62 melanoma
UO-31 renal = test system: UO-31 renal
XF 498 CNS = test system: XF 498 CNS
786-0 renal = test system: 786-0 renal
A549 NSCLC = test system: A549 NSCLC
CAKI-1 renal = test system: CAKI-1 renal
COLO 205 colon = test system: COLO 205 colon
HOP-92 NSCLC = test system: HOP-92 NSCLC
IGROV1 ovarian = test system: IGROV1 ovarian
NCI-H226 lung = test system: NCI-H226 lung
OVCAR-8 ovarian = test system: OVCAR-8 ovarian
RPMI-8226 leukemia = test system: RPMI-8226 leukemia
SF-295 CNS = test system: SF-295 CNS
SW-620 colon = test system: SW-620 colon
DMS 114 small cell lung = test system: DMS 114 small cell lung
DMS 273 small cell lung = test system: DMS 273 small cell lung
HCT-15 colon = test system: HCT-15 colon
HOP-18 NSCLC = test system: HOP-18 NSCLC
SK-MEL-5 melanoma = test system: SK-MEL-5 melanoma

O=S(O)CCCCCSSSCCCCCS(=O)O
TGI (A498 renal): > 100 µM | TGI (ACHN renal): > 100 µM | TGI (CCRF-CEM leukemia): 37.7 µM | TGI (DLD-1 colon): > 100 µM | TGI (EKVX NSCLC): > 100 µM | TGI (HCC-2998 colon): > 100 µM | TGI (HCT-116 colon): 68.1 µM | TGI (HL-60(TB) leukemia): 65 µM | TGI (HOP-62 NSCLC): > 100 µM | TGI (HT29 colon): > 100 µM | TGI (K-562 leukemia): > 100 µM | TGI (KM12 colon): > 100 µM | TGI (KM20L2 colon): > 100 µM | TGI (LOX IMVI melanoma): 62.4 µM | TGI (LXFL 529 NSCLC): 27.9 µM | TGI (M14 melanoma): > 100 µM | TGI (M19-MEL melanoma): > 100 µM | TGI (MALME-3M melanoma): 94 µM | TGI (MOLT-4 leukemia): 60.8 µM | TGI (NCI-H23 lung): > 100 µM | TGI (NCI-H460 lung): > 100 µM | TGI (NCI-H522 lung): 85.1 µM | TGI (OVCAR-3 ovarian): 78.9 µM | TGI (OVCAR-4 ovarian): > 100 µM | TGI (OVCAR-5 ovarian): > 100 µM | TGI (RXF 393 renal): 41.8 µM | TGI (SF-268 CNS): > 100 µM | TGI (SF-539 CNS): > 100 µM | TGI (SK-MEL-2 melanoma): 67.8 µM | TGI (SK-MEL-28 melanoma): > 100 µM | TGI (SK-OV-3 ovarian): > 100 µM | TGI (SN12C renal): > 100 µM | TGI (SNB-19 CNS): > 100 µM | TGI (SNB-75 CNS): 94.8 µM | TGI (SNB-78 CNS): > 100 µM | TGI (SR leukemia): 30.3 µM | TGI (TK-10 renal): 93.8 µM | TGI (U251 CNS): > 100 µM | TGI (UACC-257 melanoma): > 100 µM | TGI (UACC-62 melanoma): 55.3 µM | TGI (UO-31 renal): > 100 µM | TGI (XF 498 CNS): 36.3 µM

O=C1OCCC1(Cc1ccc(Cl)cc1)Cc1ccc(Cl)cc1
TGI (786-0 renal): > 100 µM | TGI (A498 renal): > 100 µM | TGI (A549 NSCLC): > 100 µM | TGI (ACHN renal): > 100 µM | TGI (CAKI-1 renal): > 100 µM | TGI (CCRF-CEM leukemia): > 100 µM | TGI (COLO 205 colon): > 100 µM | TGI (DLD-1 colon): > 100 µM | TGI (EKVX NSCLC): > 100 µM | TGI (HCT-116 colon): > 100 µM | TGI (HL-60(TB) leukemia): > 100 µM | TGI (HOP-62 NSCLC): 89.2 µM | TGI (HOP-92 NSCLC): 96.3 µM | TGI (HT29 colon): > 100 µM | TGI (IGROV1 ovarian): > 100 µM | TGI (K-562 leukemia): > 100 µM | TGI (KM12 colon): > 100 µM | TGI (LXFL 529 NSCLC): > 100 µM | TGI (M14 melanoma): > 100 µM | TGI (M19-MEL melanoma): > 100 µM | TGI (MALME-3M melanoma): > 100 µM | TGI (MOLT-4 leukemia): > 100 µM | TGI (NCI-H226 lung): > 100 µM | TGI (NCI-H23 lung): > 100 µM | TGI (NCI-H460 lung): > 100 µM | TGI (NCI-H522 lung): > 100 µM | TGI (OVCAR-3 ovarian): > 100 µM | TGI (OVCAR-4 ovarian): > 100 µM | TGI (OVCAR-5 ovarian): > 100 µM | TGI (OVCAR-8 ovarian): > 100 µM | TGI (RPMI-8226 leukemia): > 100 µM | TGI (SF-268 CNS): > 100 µM | TGI (SF-295 CNS): > 100 µM | TGI (SK-MEL-2 melanoma): > 100 µM | TGI (SK-MEL-28 melanoma): > 100 µM | TGI (SK-OV-3 ovarian): > 100 µM | TGI (SN12C renal): > 100 µM | TGI (SNB-19 CNS): > 100 µM | TGI (SNB-75 CNS): 56.5 µM | TGI (SNB-78 CNS): > 100 µM | TGI (SR leukemia): > 100 µM | TGI (SW-620 colon): > 100 µM | TGI (TK-10 renal): > 100 µM | TGI (U251 CNS): > 100 µM | TGI (UACC-257 melanoma): > 100 µM | TGI (UACC-62 melanoma): > 100 µM | TGI (UO-31 renal): > 100 µM | TGI (XF 498 CNS): 43.3 µM

C[C@@H](O)CCC(=O)c1ccoc1
TGI (786-0 renal): > 100 µM | TGI (A498 renal): > 100 µM | TGI (A549 NSCLC): > 100 µM | TGI (ACHN renal): > 100 µM | TGI (CAKI-1 renal): > 100 µM | TGI (CCRF-CEM leukemia): > 100 µM | TGI (COLO 205 colon): > 100 µM | TGI (DLD-1 colon): > 100 µM | TGI (DMS 114 small cell lung): > 100 µM | TGI (DMS 273 small cell lung): > 100 µM | TGI (EKVX NSCLC): > 100 µM | TGI (HCC-2998 colon): > 100 µM | TGI (HCT-116 colon): > 100 µM | TGI (HCT-15 colon): > 100 µM | TGI (HL-60(TB) leukemia): > 100 µM | TGI (HOP-18 NSCLC): > 100 µM | TGI (HOP-62 NSCLC): > 100 µM | TGI (HOP-92 NSCLC): > 100 µM | TGI (HT29 colon): > 100 µM | TGI (IGROV1 ovarian): > 100 µM | TGI (K-562 leukemia): > 100 µM | TGI (KM12 colon): > 100 µM | TGI (KM20L2 colon): > 100 µM | TGI (LOX IMVI melanoma): > 100 µM | TGI (LXFL 529 NSCLC): > 100 µM | TGI (M14 melanoma): > 100 µM | TGI (M19-MEL melanoma): > 100 µM | TGI (MALME-3M melanoma): > 100 µM | TGI (MOLT-4 leukemia): > 100 µM | TGI (NCI-H226 lung): > 100 µM | TGI (NCI-H23 lung): > 100 µM | TGI (NCI-H460 lung): > 100 µM | TGI (NCI-H522 lung): > 100 µM | TGI (OVCAR-3 ovarian): > 100 µM | TGI (OVCAR-4 ovarian): > 100 µM | TGI (OVCAR-5 ovarian): > 100 µM | TGI (OVCAR-8 ovarian): > 100 µM | TGI (RPMI-8226 leukemia): > 100 µM | TGI (RXF 393 renal): > 100 µM | TGI (SF-268 CNS): > 100 µM | TGI (SF-295 CNS): > 100 µM | TGI (SF-539 CNS): > 100 µM | TGI (SK-MEL-2 melanoma): > 100 µM | TGI (SK-MEL-28 melanoma): > 100 µM | TGI (SK-MEL-5 melanoma): > 100 µM | TGI (SK-OV-3 ovarian): > 100 µM | TGI (SN12C renal): > 100 µM | TGI (SNB-19 CNS): > 100 µM | TGI (SNB-75 CNS): > 100 µM | TGI (SNB-78 CNS): > 100 µM | TGI (SR leukemia): > 100 µM | TGI (SW-620 colon): > 100 µM | TGI (TK-10 renal): > 100 µM | TGI (U251 CNS): > 100 µM | TGI (UACC-257 melanoma): > 100 µM | TGI (UACC-62 melanoma): > 100 µM | TGI (UO-31 renal): > 100 µM
